Experimental data reported in PubChem BioAssay (NCI).
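Interpolation was linear, between the two tested concentrations surrounding the appropriate level; five concentrations were tested over 48 hours in 96-well plates. GI50: concentration for 50% inhibition of growth. TGI: concentration producing complete growth inhibition.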

Columns and labels:
Assay in all cases: NCI tumour cell line growth inhibition, 48 h
[1] = tested on: DMS 114 small cell lung
[2] = tested on: HOP-18 NSCLC
[3] = tested on: KM20L2 colon
[4] = tested on: LXFL 529 NSCLC
[5] = tested on: M19-MEL melanoma
[6] = tested on: SNB-78 CNS
[7] = tested on: MDA-N
[8] = tested on: DMS 273 small cell lung
[9] = tested on: RXF-631 renal
[10] = tested on: P388 leukemia
[11] = tested on: SN12K1 renal

## O=C(COC(=O)c1cccc2c(=O)c3ccccc3[nH]c12)Nc1ccc(Cl)cc1
[1]
  TGI: > 100 µM
[2]
  TGI: > 100 µM
[3]
  TGI: > 100 µM
[4]
  TGI: > 100 µM
[5]
  TGI: > 100 µM
[6]
  TGI: > 100 µM

## C=C(C)C1CCC2=CC(CC3(C)OC3C3=CC(C(=O)OC)=C(C1)O3)OC2=O (stereo not drawn)
[7]
  TGI: > 100 µM

## CCOC(=O)/C(C#N)=C\Sc1ccccc1
[1]
  TGI: 33.9 µM
[8]
  TGI: 41.9 µM
[2]
  TGI: > 100 µM
[3]
  TGI: 51.9 µM
[4]
  TGI: 57.3 µM
[5]
  TGI: 63.8 µM
[9]
  TGI: 53.2 µM
[6]
  TGI: > 100 µM

## COc1c(-c2ccc3c(c2)OCO3)oc2cc(O)cc(O)c2c1=O
[7]
  TGI: > 100 µM

## Cc1ccc(C)c(NC(=O)C(=O)C2C(=O)N(c3ccccc3)N=C2N)c1 (stereo not drawn)
[8]
  TGI: > 100 µM
[2]
  TGI: > 100 µM
[3]
  TGI: > 100 µM
[4]
  TGI: > 100 µM
[5]
  TGI: > 100 µM
[9]
  TGI: > 100 µM
[6]
  TGI: > 100 µM

## O=C1C(Cl)=C(Cl)C(=O)N1c1ccc(F)cc1
[1]
  TGI: 39.4 µM
[8]
  TGI: > 62 µM
[2]
  TGI: 43.1 µM
[3]
  TGI: 52.8 µM
[4]
  TGI: 32.1 µM
[5]
  TGI: 41.8 µM
[7]
  TGI: 48.7 µM
[9]
  TGI: > 72.6 µM
[6]
  TGI: 71.3 µM

## COc1cc(C2c3cc4c(cc3[C@@H](Nc3ccc([N+](=O)[O-])cc3)C3COC(=O)[C@H]23)OCO4)cc(OC)c1O (stereo partly drawn)
[1]
  GI50: 614 nM
  TGI: 6.26 µM
[8]
  GI50: 274 nM
  TGI: 5.65 µM
[2]
  TGI: 77.2 µM
[3]
  TGI: 14.8 µM
[4]
  TGI: 78.3 µM
[5]
  GI50: 942 nM
  TGI: 22.8 µM
[7]
  TGI: > 100 µM
[10]
  TGI: > 100 µM
[9]
  TGI: 11.4 µM
[11]
  TGI: 2880 nM
[6]
  TGI: > 71.5 µM

## CN(CCCN1C(=O)c2cccc3cc([N+](=O)[O-])cc(c23)C1=O)CCN(C)CCCN1C(=O)c2cccc3cc([N+](=O)[O-])cc(c23)C1=O
[1]
  TGI: > 39.3 µM
[8]
  TGI: > 39.3 µM
[2]
  TGI: > 39.3 µM
[3]
  TGI: > 39.3 µM
[4]
  TGI: > 39.3 µM
[5]
  TGI: > 39.3 µM
[9]
  TGI: > 39.3 µM
[6]
  TGI: > 39.3 µM

## C[C@]12CC(C=O)C(=O)C(O)=C1CC[C@@H]1C2CC[C@@]2(C)C1CC[C@]2(C)O (stereo partly drawn)
[1]
  TGI: 33.4 µM
[8]
  TGI: 46.8 µM
[3]
  TGI: 52.9 µM
[4]
  TGI: 31.6 µM
[5]
  TGI: 44.8 µM
[9]
  TGI: 72.7 µM
[6]
  TGI: 35.8 µM

## Cc1cc(Cl)ccc1N=C1NC(=O)C(CC(=O)Nc2cccc(C)c2C)S1 (stereo not drawn)
[1]
  TGI: 66.6 µM
[8]
  TGI: 81 µM
[3]
  TGI: 87.2 µM
[5]
  TGI: > 100 µM
[9]
  TGI: 84.3 µM
[6]
  TGI: 79.7 µM

## Cc1c(NC(=O)Nc2c(Cl)cccc2Cl)c(=O)n(-c2ccccc2)n1C
[7]
  TGI: > 100 µM

## O=C1NC2(CCCCC2)C2CCCCC=C12 (stereo not drawn)
[1]
  TGI: > 100 µM
[8]
  TGI: > 100 µM
[2]
  TGI: > 100 µM
[4]
  TGI: > 100 µM
[5]
  TGI: > 100 µM
[6]
  TGI: > 100 µM

## CSc1ccc(NC(=O)Nc2cc(C)ccn2)cc1
[7]
  TGI: > 100 µM

## O=C(O)/C(Cl)=C(Cl)/C=N/NC(=O)c1cc2ccccc2cc1O
[1]
  TGI: 51.5 µM
[8]
  TGI: 45.2 µM
[2]
  TGI: 80.5 µM
[3]
  TGI: 87.2 µM
[4]
  TGI: > 100 µM
[5]
  TGI: 75.4 µM
[9]
  TGI: > 100 µM
[6]
  TGI: > 100 µM

## COC(=O)c1ccc(C(=O)OC)c2nc3cc(Cl)ccc3nc12
[1]
  TGI: > 100 µM
[8]
  TGI: > 100 µM
[2]
  TGI: > 100 µM
[3]
  TGI: > 100 µM
[4]
  TGI: > 100 µM
[5]
  TGI: > 100 µM
[9]
  TGI: > 100 µM

## CCC[CH2][Sn]([CH2]CCC)([O]C(=O)c1cc(F)ccc1F)[O]C(=O)c1cc(F)ccc1F
[1]
  GI50: 372 nM
  TGI: 1.41 µM
[8]
  GI50: 1200 nM
  TGI: 2.45 µM
[2]
  GI50: 2.21 µM
  TGI: 3.67 µM
[3]
  GI50: 1760 nM
  TGI: 3.37 µM
[4]
  GI50: 176 nM
  TGI: 0.491 µM
[5]
  GI50: 537 nM
  TGI: 1.8 µM
[9]
  GI50: 154 nM
  TGI: 0.363 µM
[6]
  GI50: 419 nM
  TGI: 1.86 µM

## Cn1c2c(c3ccccc3c1=O)C(=O)c1ccccc1-2
[7]
  TGI: > 100 µM

## N#CC(C(=N/O)/C(=N\O)C(C#N)c1ccccc1)c1ccccc1 (stereo not drawn)
[1]
  TGI: > 100 µM
[2]
  TGI: > 100 µM
[3]
  TGI: > 100 µM
[4]
  TGI: > 100 µM
[5]
  TGI: > 100 µM
[9]
  TGI: > 100 µM
[6]
  TGI: > 100 µM

## CNCC(=O)NC(CO)C(=O)NC(CO)C(=O)NC1C(C(N)=O)OC(n2ccc(N)nc2=O)C(O)C1O (stereo not drawn)
[7]
  GI50: 12.4 µg/mL
  TGI: > 50 µg/mL

## O=[N+]([O-])c1cccc(S(=O)(=O)N/N=C/c2cc(I)cc([N+](=O)[O-])c2O)c1
[1]
  TGI: 53.8 µM
[8]
  TGI: 52.9 µM
[2]
  TGI: 78.6 µM
[3]
  TGI: > 100 µM
[4]
  TGI: 48.3 µM
[5]
  TGI: > 100 µM
[6]
  TGI: 66.4 µM

## Cc1cc2c3c([n+](C)c4ccc(F)cc4c3c1)-c1cc(F)ccc1N2C
[7]
  GI50: 14.3 µM
  TGI: > 100 µM

## [Cl][Hg][c]1ccc2ccccc2c1
[7]
  GI50: 1.5 µM
  TGI: 2.88 µM

## Nn1c(-c2cccc(Cl)c2)nc2ccccc2c1=O
[1]
  TGI: > 100 µM
[8]
  TGI: > 100 µM
[2]
  TGI: > 100 µM
[3]
  TGI: > 100 µM
[4]
  TGI: > 100 µM
[9]
  TGI: > 100 µM
[6]
  TGI: > 100 µM

## COc1ccc(/C=C\c2cc(OC)c(OC)c(OC)c2)cc1OC(=O)CC(N)C(=O)O (stereo not drawn)
[1]
  TGI: 0.00318 µM
[8]
  TGI: 0.00462 µM
[2]
  GI50: > 100 µM
  TGI: > 100 µM
[3]
  TGI: 21.2 µM
[5]
  TGI: > 100 µM
[7]
  TGI: 0.000474 µM
[6]
  TGI: > 100 µM

## C[C@]12Cc3conc3C(O)=C1CC[C@@H]1C2CC[C@@]2(C)C1CC[C@]2(C)O (stereo partly drawn)
[1]
  TGI: 43.4 µM
[8]
  TGI: 26.3 µM
[3]
  TGI: 42.7 µM
[4]
  TGI: 35.7 µM
[5]
  TGI: 41.9 µM
[9]
  TGI: > 100 µM
[6]
  TGI: 63.4 µM

## Oc1ccc(Cl)cc1Sc1cc(Cl)ccc1O
[7]
  TGI: 26.1 µM

## C=C1C(=O)O[C@@H]2CC(CO)=C([C@@H](C)CCCO)[C@@H](OC(=O)/C(C)=C\C)[C@H]12
[7]
  TGI: > 67.3 µM

## CN(C)C(=S)/N=c1\ssc(=S)n1Cc1ccco1
[1]
  TGI: > 74 µM
[8]
  TGI: > 42.2 µM
[2]
  TGI: > 100 µM
[3]
  TGI: > 100 µM
[4]
  TGI: > 100 µM
[5]
  TGI: > 100 µM
[9]
  TGI: > 100 µM
[6]
  TGI: > 100 µM

## CCCS(=O)c1nc(COC(=O)NC)c(COC(=O)NC)n1C (stereo not drawn)
[1]
  TGI: > 100 µM
[8]
  TGI: > 100 µM
[2]
  TGI: > 100 µM
[3]
  TGI: > 100 µM
[4]
  TGI: > 100 µM
[5]
  TGI: > 100 µM
[10]
  TGI: > 100 µM
[9]
  TGI: > 100 µM
[11]
  TGI: > 100000 nM
[6]
  TGI: > 100 µM

## NC(Cc1cccnn1)C(=O)O (stereo not drawn)
[7]
  TGI: > 100 µM

## COC(=O)C12C34C=CC5(CCC6(C=CC1(CC3)O6)C52C(=O)OC)O4 (stereo not drawn)
[8]
  TGI: > 100 µM
[2]
  TGI: > 100 µM
[3]
  TGI: > 100 µM
[4]
  TGI: > 100 µM
[5]
  TGI: > 100 µM
[9]
  TGI: > 100 µM
[6]
  TGI: > 100 µM

## CC(=O)[CH-]C(=O)c1ccccc1.CC(=O)[CH-]C(=O)c1ccccc1.CC[C@H](/C=C/C(C)[C@H]1CCC2[C@@H]3CC=C4C[C@@H]([O-])CC[C@]4(C)C3CC[C@@]21C)C(C)C.CC[C@H](/C=C/C(C)[C@H]1CCC2[C@@H]3CC=C4C[C@@H]([O-])CC[C@]4(C)C3CC[C@@]21C)C(C)C.Cl.[Ti+4] (stereo partly drawn)
[8]
  GI50: > 25000 nM
  TGI: > 25 µM
[2]
  GI50: > 25 µM
  TGI: > 25 µM
[3]
  GI50: > 25000 nM
  TGI: > 25 µM
[4]
  GI50: > 25000 nM
  TGI: > 25 µM
[5]
  GI50: > 25000 nM
  TGI: > 25 µM

## O=C1CC(Cc2n[nH]c3c2CCCC3)CC(=O)N1
[7]
  TGI: > 100 µM

## COC(=O)C(=O)C(C(C)=O)C(=O)NCc1ccccc1 (stereo not drawn)
[1]
  TGI: > 100 µM
[8]
  TGI: > 100 µM
[2]
  TGI: > 100 µM
[3]
  TGI: > 100 µM
[4]
  TGI: > 100 µM
[5]
  TGI: > 100 µM
[6]
  TGI: > 100 µM

## COc1cc2c3cc1Oc1c(OC)c(OC)cc4c1[C@@H](Cc1ccc(O)c(c1)Oc1ccc(cc1)C[C@@H]3N(C)CC2)N(C)CC4
[8]
  TGI: 34 µM
[3]
  TGI: 21.1 µM
[4]
  TGI: 24.8 µM
[5]
  TGI: 26.2 µM
[6]
  TGI: > 100 µM

## O=C1C(Cl)=C(Cl)C(=O)N1c1cccc(C(F)(F)F)c1
[1]
  TGI: > 100 µM
[8]
  TGI: > 100 µM
[2]
  TGI: > 100 µM
[3]
  TGI: > 100 µM
[4]
  TGI: > 100 µM
[5]
  TGI: > 100 µM
[9]
  TGI: > 100 µM
[6]
  TGI: > 100 µM

## CC(C)N1C(C)[C@@H](c2ccccc2)O[P@@]1(=O)CC1=CCCCC1 (stereo partly drawn)
[1]
  TGI: > 100 µM
[2]
  TGI: > 100 µM
[3]
  TGI: > 100 µM
[4]
  TGI: > 100 µM
[5]
  TGI: > 100 µM

## Cc1ccc(NC(=S)C#N)c(C)c1
[7]
  TGI: > 100 µM

## COc1cccc2c(SCC(=O)Nc3ccccc3-c3ccccc3NC(=O)CSc3c4ccccc4nc4c(OC)cccc34)c3ccccc3nc12
[1]
  TGI: > 100 µM
[8]
  TGI: > 100 µM
[3]
  TGI: > 100 µM
[9]
  TGI: > 100 µM
[6]
  TGI: > 100 µM

## CCCCCN(CCCCC)C(=O)[C@H](CCC(=O)O)NC(=O)c1cc2ccccc2[nH]1
[1]
  TGI: > 100 µM
[8]
  TGI: > 100 µM
[3]
  TGI: > 100 µM
[4]
  TGI: > 100 µM
[5]
  TGI: > 100 µM
[6]
  TGI: > 100 µM

## CCOC(=O)C(=O)Nc1c(C)cccc1C(C)(C)C
[1]
  TGI: > 100 µM
[8]
  TGI: > 100 µM
[2]
  TGI: > 100 µM
[3]
  TGI: > 100 µM
[4]
  TGI: > 100 µM
[5]
  TGI: > 100 µM
[9]
  TGI: > 100 µM
[6]
  TGI: > 100 µM
